Assay results taken from BindingDB's records for patent US20240335420 (Eurofarma, 2024).

What was measured:
[1] = molecular target: Sodium channel protein type 9 subunit alpha (Homo sapiens, UniProt Q15858); assay: In Vitro Assay (Protocol 1)
Experimental: (§1) Compounds of Formula (I), were diluted in eight concentrations in the extracellular solution composed of physiological saline, buffered with HEPES (mM): NaCl, 137; KCl, 4; CaCl2, 3.8; MgCl2, 1; HEPES, 10; Glucose, 10; pH 7.4. The […], 50; CsF, 90; MgCl2, 5; EGTA, 5; HEPES, 10; pH 7.2. The duration of exposure of each compound with the cells expressing Nav 1.7 or Nav 1.8 was at least five minutes and the assays were performed at room temperature.The measurements of the sodium currents of Nav 1.8 and Nav 1.7 were obtained using the voltage protocols described below:Protocol 1: A holding voltage of −90 mV was established followed by a voltage phase of 200 ms to −120 mV, followed by a voltage step of 10 mV for 1 second for Nav 1.8 or 0 mV for Nav 1.7, followed by a step of −100 mV for 20 ms, followed by a step of 20 ms for 10 mV for Nav 1.8 or 0 mV for Nav 1.7 (TP1A) before returning to the holding voltage of −90 mV.Protocol 2: A holding voltage of −100 mV was established followed by an inactivation voltage step at −40 mV for 8 seconds, followed by a −100 mV step for […], followed by a 20 ms step for 10 mV for Nav 1.8 or 0 mV for Nav 1.7 (TP1A) before returning to the holding voltage of −100 mV.Protocols were repeated at a frequency of 0.1 Hz and current amplitude was quantified over the TP1A phase log. The variation in the peak amplitude of the current was evaluated according to the Formula described below, after exposure of the cells expressing the channels, at each concentration of the different compounds:%Block=(1-(ITP1A,molecule/ITP1A,basal)×100%,where |TP1A, basal, and |TP1A, molecule represent the entry peaks of sodium currents into TP1A prior to exposure to the compound and in the presence of the compound, respectively.

[2] = molecular target: Sodium channel protein type 10 subunit alpha (Homo sapiens, UniProt Q9Y5Y9); assay: In Vitro Assay (Protocol 1)
Sodium channel protein type 10 subunit alpha, sequence (Q9Y5Y9 whole entry): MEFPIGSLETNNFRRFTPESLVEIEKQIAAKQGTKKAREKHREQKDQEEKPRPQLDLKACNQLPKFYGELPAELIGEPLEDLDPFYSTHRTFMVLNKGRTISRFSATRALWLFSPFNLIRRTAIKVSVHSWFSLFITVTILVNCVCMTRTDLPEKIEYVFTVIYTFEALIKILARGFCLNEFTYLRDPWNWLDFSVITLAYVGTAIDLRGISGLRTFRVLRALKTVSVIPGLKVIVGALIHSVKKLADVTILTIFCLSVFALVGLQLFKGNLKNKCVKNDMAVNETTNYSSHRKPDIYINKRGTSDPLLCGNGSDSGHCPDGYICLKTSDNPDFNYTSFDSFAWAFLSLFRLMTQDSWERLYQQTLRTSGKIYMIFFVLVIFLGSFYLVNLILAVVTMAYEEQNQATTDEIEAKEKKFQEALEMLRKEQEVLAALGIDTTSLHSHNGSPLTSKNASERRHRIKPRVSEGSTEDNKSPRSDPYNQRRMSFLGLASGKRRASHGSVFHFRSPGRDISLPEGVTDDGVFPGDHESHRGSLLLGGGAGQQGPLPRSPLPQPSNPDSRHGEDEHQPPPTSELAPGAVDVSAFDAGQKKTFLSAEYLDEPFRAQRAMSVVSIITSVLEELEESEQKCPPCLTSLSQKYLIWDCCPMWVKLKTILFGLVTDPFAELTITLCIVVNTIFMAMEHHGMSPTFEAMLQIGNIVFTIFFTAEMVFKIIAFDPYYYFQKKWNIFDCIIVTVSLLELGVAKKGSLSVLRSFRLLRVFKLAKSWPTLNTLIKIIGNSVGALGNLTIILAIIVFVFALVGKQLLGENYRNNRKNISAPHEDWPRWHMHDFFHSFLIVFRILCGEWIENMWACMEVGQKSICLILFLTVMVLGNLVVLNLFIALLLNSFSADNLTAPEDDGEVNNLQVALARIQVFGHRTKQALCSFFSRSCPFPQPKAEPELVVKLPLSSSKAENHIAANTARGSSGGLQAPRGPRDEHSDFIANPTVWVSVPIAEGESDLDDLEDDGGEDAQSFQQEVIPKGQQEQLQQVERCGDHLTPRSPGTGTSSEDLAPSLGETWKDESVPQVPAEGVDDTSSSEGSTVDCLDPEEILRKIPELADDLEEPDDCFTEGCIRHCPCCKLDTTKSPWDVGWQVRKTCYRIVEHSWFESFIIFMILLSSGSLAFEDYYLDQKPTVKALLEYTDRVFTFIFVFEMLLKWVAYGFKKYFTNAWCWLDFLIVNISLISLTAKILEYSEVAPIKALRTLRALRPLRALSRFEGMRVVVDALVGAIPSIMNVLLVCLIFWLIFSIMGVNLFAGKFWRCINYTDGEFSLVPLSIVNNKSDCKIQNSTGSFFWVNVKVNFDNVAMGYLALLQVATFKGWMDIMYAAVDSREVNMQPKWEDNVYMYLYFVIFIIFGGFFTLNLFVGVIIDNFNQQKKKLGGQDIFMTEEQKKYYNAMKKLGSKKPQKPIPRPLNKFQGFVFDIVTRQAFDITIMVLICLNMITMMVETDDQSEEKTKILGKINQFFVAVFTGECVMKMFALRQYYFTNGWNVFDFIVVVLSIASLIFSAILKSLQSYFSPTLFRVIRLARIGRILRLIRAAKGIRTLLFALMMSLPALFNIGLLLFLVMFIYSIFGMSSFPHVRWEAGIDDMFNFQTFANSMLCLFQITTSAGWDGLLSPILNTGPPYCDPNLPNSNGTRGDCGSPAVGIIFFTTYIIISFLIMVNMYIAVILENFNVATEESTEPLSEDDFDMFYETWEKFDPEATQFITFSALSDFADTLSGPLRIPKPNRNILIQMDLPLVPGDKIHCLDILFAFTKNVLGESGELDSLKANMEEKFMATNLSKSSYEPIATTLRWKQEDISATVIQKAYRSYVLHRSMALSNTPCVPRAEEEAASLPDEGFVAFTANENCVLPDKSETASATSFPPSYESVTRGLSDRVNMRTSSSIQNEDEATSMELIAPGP
Experimental: as §1

Sodium channel protein type 9 subunit alpha, sequence (Q15858 whole entry): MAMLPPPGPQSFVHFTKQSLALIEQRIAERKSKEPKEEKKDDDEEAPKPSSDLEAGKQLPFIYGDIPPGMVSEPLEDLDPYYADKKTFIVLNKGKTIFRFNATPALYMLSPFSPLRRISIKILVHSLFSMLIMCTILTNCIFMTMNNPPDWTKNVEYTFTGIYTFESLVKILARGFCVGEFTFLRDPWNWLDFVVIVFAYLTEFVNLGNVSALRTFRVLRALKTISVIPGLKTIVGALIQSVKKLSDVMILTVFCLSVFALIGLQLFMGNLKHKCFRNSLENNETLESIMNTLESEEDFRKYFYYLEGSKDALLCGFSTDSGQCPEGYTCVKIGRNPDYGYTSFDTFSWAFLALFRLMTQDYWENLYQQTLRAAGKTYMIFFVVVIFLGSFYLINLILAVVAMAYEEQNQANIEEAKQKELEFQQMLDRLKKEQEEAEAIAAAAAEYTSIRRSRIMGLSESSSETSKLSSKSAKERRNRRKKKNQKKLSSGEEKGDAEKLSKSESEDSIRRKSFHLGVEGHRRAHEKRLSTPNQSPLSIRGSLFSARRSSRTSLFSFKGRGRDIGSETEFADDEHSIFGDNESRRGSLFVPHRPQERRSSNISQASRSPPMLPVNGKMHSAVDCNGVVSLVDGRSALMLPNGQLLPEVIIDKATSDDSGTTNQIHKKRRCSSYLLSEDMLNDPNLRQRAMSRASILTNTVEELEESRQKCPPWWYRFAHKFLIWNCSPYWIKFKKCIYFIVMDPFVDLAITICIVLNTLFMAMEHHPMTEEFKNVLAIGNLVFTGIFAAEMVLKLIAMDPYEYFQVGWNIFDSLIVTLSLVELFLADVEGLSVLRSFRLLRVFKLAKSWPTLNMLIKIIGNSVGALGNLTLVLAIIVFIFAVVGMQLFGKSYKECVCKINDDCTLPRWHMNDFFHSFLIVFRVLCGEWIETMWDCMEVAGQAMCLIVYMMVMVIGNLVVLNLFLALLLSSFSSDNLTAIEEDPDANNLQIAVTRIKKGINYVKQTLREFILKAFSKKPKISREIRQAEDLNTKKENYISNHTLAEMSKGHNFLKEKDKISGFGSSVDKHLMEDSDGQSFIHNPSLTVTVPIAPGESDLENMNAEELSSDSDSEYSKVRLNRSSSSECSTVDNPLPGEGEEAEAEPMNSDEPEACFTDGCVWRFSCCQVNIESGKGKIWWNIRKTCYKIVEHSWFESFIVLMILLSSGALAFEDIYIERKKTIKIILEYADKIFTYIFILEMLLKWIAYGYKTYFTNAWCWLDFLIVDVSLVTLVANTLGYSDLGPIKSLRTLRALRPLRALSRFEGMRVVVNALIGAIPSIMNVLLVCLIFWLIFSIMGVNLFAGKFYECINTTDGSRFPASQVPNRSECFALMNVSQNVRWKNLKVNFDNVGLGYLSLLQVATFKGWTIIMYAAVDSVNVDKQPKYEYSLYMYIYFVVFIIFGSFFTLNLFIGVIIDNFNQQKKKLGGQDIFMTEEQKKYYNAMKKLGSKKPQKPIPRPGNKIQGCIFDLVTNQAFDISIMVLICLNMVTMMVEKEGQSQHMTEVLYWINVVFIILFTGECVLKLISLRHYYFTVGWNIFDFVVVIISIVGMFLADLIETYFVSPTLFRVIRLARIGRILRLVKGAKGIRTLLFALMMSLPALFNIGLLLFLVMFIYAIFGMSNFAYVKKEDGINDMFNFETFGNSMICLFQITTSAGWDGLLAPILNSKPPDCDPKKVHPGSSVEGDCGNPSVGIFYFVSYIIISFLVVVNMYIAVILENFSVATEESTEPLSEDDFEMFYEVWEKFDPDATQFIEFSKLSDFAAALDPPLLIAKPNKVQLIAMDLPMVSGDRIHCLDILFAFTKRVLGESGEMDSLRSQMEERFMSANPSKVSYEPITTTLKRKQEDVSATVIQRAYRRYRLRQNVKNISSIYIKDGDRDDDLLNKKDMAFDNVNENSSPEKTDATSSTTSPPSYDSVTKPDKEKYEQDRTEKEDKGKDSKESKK

Row | SMILES | IC50 [1] | IC50 [2]
1 | COc1cc(/C=N/NC(=O)c2cccc(-c3ccc(Cl)cc3)n2)cc(OC)c1 [US20240335420, Compound 10] | 362 nM | 1370 nM
2 | O=C(N/N=C/c1cccs1)c1ccc(-c2ccc(Cl)cc2)o1 [US20240335420, Compound 1] | > 30000 nM | > 30000 nM
